The text below walks through data of patent US20080299140A1, “Immunogenic Composition and Peptide Sequences for Prevention and Treatment of an Hsv Condition” (priority 2002, published 2008).

Positions count from the first letter of the chain named. Where two headings read alike, the source gives them in different places.

Assay [1] deals with T1, DR1=HLA-DR(α1*0101,α1*0101) (Homo sapiens, UniProt P01903+P01911, A100R/D57E/F55L/F60I/F76Y/I96L/L162R/M171V/P40L/Q125E/R42F/V115G/Y59C).
T1 construct: endogenous in cells; host or cells: EBV homozygous human B cell line
The experiment in a line: biochemical. It is filed as binding.

Assay [2] addresses T2, DRB5=HLA-DR(α1*0101,α5*0101) (Homo sapiens, UniProt P01903+Q30154).
T2 construct: endogenous in cells; host or cells: EBV homozygous human B cell line
The experiment in a line: biochemical. It is filed as binding. The following applies: Table V; […]; read-out: IC50 DRB5.

The target of assay [3] is T3, DRB4=HLA-DR(α1*0101,α4*0101) (Homo sapiens, UniProt P01903+P13762, G164S).
T3 construct: endogenous in cells
Description: HLA-DR specific binding assay, DRB4 (DR53).

Assay [4] deals with T4, DR15=HLA-DR(α1*0101,α1*1501) (Homo sapiens, UniProt P01903+P01911).
T4 construct: endogenous in cells; host or cells: EBV homozygous human B cell line
Description: HLA-DR specific binding assay, DR15.

Assay [5] has as its target T5, DR4=HLA-DR(α1*0101,α1*0401) (Homo sapiens, UniProt P01903+P01911, A100K/A169T/F76Y/I96L/K127E/L162R/M171V/N62H/P40V/Q125Y/R42H/S133A/S149N/S66Y/V115G/V209L/W38E).
T5 construct: endogenous in cells; host or cells: BOLETH (EBV homozygous B cell line)
Description: biochemical. It is filed as binding.

The target in assay [6] is T6, DRB3=HLA-DR(α1*0101,α3*0101) (Homo sapiens, UniProt P01903+P79483).
T6 construct: endogenous in cells; host or cells: STEILIN or 0206AD (both typed DRB3*0101)
Description: HLA-DR specific binding assay, DRB3 (DR52).

Assay [7] concerns the target T7, DR13=HLA-DR(α1*0101,α1*1301) (Homo sapiens, UniProt P01903+P01911, A100E/A169T/K41T/L162R/M171V/P40S/Q125H/Q178H/Q39Y/Q99D/R42S/S66N/T262R/W38E/Y61H).
T7 construct: endogenous in cells; host or cells: 0206AD (EBV homozygous B cell line)
The experiment in a line: HLA-DR specific binding assay, DR13.

The target of assay [8] is T8, DR7=HLA-DR(α1*0101,α1*0701) (Homo sapiens, UniProt P01903+P01911, A100R/A102G/A103Q/D57E/D86V/E43K/F76Y/K127E/L162R/M171V/P40G/Q125H/Q99D/R33Q/R42Y/R54Q/S133A/S66F/T210M/V115G/Y107V/Y59L/Y89S).
T8 construct: endogenous in cells; host or cells: EBV homozygous human B cell line
Description: HLA-DR specific binding assay, DR7.

Assay [9] deals with T9, DR11=HLA-DR(α1*0101,α1*1101) (Homo sapiens, UniProt P01903+P01911, A100R/A169T/A87E/I96F/K41T/L162R/M171V/P40S/Q125H/Q178H/Q39Y/Q99D/R42S/S66Y/T262R/V115G/W38E).
T9 construct: endogenous in cells; host or cells: SWEIG (EBV homozygous B cell line)
Description: biochemical. It is filed as binding.

The target in assay [10] is T10, DP401=HLA-DP(α1*0101,α1*0401) (Homo sapiens, UniProt P04440+P20036).
T10 sequence (P20036 32-260 limits assumed): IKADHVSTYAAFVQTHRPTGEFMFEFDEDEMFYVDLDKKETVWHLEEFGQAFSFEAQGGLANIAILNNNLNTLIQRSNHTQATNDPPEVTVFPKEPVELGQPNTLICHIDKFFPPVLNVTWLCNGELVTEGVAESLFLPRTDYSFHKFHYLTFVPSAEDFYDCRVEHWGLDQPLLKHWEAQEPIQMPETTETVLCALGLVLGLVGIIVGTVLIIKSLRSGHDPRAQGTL
T10 sequence (P04440 30-258): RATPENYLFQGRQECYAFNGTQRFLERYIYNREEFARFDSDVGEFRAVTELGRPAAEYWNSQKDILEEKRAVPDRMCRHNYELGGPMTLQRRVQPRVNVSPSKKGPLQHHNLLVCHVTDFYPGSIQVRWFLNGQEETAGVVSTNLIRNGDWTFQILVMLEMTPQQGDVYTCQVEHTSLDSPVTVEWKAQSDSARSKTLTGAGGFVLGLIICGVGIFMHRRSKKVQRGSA
Description: biochemical. The assay is classed as binding.

For assay [11], the target named is T11, DR3=HLA-DR(α1*0101,α1*0301) (Homo sapiens, UniProt P01903+P01911, A100K/A102G/A103R/A169T/F55Y/I96L/K41T/L162R/M171V/P40S/Q125H/Q178H/Q39Y/R42S/S66N/T106N/T262R/W38E/Y61H).
T11 construct: endogenous in cells; host or cells: STEILIN (EBV homozygous B cell line)
Description: HLA-DR specific binding assay, DR3.

The target of assay [12] is T12, DP402 DP (α1*0101, α1*0402) (Homo sapiens, UniProt P04440+P20036, A65V/A84D/A85E/L207M).
T12 sequence (P20036 29-260): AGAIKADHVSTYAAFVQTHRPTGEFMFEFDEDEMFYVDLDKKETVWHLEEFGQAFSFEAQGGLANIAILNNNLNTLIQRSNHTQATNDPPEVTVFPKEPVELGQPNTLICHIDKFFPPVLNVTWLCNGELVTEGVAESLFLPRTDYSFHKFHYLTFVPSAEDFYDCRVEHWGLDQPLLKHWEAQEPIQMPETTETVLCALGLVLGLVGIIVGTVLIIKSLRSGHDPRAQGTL
T12 sequence (P04440 30-258 A65V/A84D/A85E): T10 sequence (P04440 30-258) with A36V, A55D, A56E
The experiment in a line: biochemical. The assay is classed as binding.

In assay [13] the test system is HLA-DR and HLA-DP molecules. Description: MHC class II binding assays, panel of twelve HLA class II molecules (number of alleles bound). The settings on record: number of the twelve class II MHC alleles bound; title: Threshold 600 nM/5 alleles.
The mark [14] stands for this setting: Table V, […], read-out: IC50 DR4.
Where [15] appears, read: Table V, […], read-out: IC50 DR11.

T6 sequence (P79483 30-266, other chains not shown): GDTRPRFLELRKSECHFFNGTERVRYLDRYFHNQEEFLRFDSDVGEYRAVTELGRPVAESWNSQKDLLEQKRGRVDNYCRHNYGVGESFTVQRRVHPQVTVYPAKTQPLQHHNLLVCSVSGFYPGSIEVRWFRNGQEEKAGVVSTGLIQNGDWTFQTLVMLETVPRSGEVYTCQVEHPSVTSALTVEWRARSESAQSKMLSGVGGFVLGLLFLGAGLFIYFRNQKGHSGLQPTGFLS
T2 sequence (Q30154 30-266, other chains not shown): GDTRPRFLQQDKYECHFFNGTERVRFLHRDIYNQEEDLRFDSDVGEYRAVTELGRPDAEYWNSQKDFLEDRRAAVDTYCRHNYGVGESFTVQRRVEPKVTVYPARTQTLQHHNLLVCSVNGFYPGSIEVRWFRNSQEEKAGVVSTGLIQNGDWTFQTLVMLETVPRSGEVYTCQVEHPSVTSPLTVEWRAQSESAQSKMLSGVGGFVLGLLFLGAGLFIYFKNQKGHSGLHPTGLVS

The IC50 is the point on the concentration scale where inhibition reaches its midpoint. As to `CC[C@H](C)[C@H](NC(=O)[C@H](CCCCN)NC(=O)[C@@H](NC(=O)[C@H](CC(C)C)NC(=O)[C@H](CCCNC(=N)N)NC(=O)[C@H](CC(C)C)NC(=O)[C@H](Cc1ccc(O)cc1)NC(=O)[C@@H](NC(=O)CNC(=O)[C@H](C)NC(=O)[C@@H](NC(=O)[C@H](CCC(=O)O)NC(=O)[C@H](Cc1ccccc1)NC(=O)[C@H](C)NC(=O)[C@@H]1CCCN1C(=O)[C@H](C)NC(=O)[C@H](Cc1c[nH]cn1)NC(=O)[C@H](CCSC)NC(=O)[C@H](CC(C)C)NC(=O)[C@H](Cc1ccccc1)NC(=O)CNC(=O)[C@H](CC(C)C)NC(=O)[C@H](CC(N)=O)NC(=O)[C@H](CC(=O)O)NC(=O)[C@@H](N)CCC(=O)O)[C@@H](C)O)[C@@H](C)O)C(C)C)C(=O)N[C@@H](CC(N)=O)C(=O)N[C@@H](CC(=O)O)C(=O)N[C@@H](Cc1c[nH]c2ccccc12)C(=O)N[C@H](C(=O)N[C@@H](CCC(=O)O)C(=O)N[C@H](C(=O)N[C@H](C(=O)N[C@@H](CCC(N)=O)C(=O)N[C@@H](Cc1ccccc1)C(=O)O)[C@@H](C)O)[C@@H](C)CC)[C@@H](C)O` [HSV 34], the 50% inhibitory concentration (IC50) in [1] (IC50 DR1) was found to be 40 nM; in assay [2], 85 nM; in assay [3] it was 743 nM; in [4] it was 35 nM; in assay [5] (setting [14]) it was 632 nM; in assay [6] (IC50 DRB3, Table V, […]) it was 2020 nM. Besides, the IC50 was over 100000 nM in assay [7]; 316 nM in assay [8]; 175 nM in assay [9] (setting [15]); 115 nM in assay [10] (Table V, […]); 10200 nM in [11] (IC50 DR3, Table V, […]); 164 nM in [12] (Table V, […]).

In the case of `CC[C@H](C)[C@H](N)C(=O)N[C@H](C(=O)N[C@@H](CCC(N)=O)C(=O)N[C@@H](Cc1ccccc1)C(=O)N[C@H](C(=O)N[C@@H](CC(C)C)C(=O)N[C@@H](CCC(=O)O)C(=O)N[C@@H](Cc1c[nH]cn1)C(=O)N[C@@H](CCCNC(=N)N)C(=O)N[C@@H](C)C(=O)N[C@@H](CCCCN)C(=O)NCC(=O)N[C@@H](CO)C(=O)N[C@@H](CS)C(=O)N[C@@H](CCCCN)C(=O)N[C@@H](Cc1ccc(O)cc1)C(=O)N[C@@H](C)C(=O)N[C@@H](CC(C)C)C(=O)N1CCC[C@H]1C(=O)N[C@@H](CC(C)C)C(=O)N[C@@H](CCCNC(=N)N)C(=O)N[C@H](C(=O)N1CCC[C@H]1C(=O)N1CCC[C@H]1C(=O)N[C@@H](CO)C(=O)N[C@@H](C)C(=O)N[C@@H](CS)C(=O)N[C@@H](CC(C)C)C(=O)N[C@@H](CO)C(=O)N1CCC[C@H]1C(=O)N[C@@H](CCC(N)=O)C(=O)O)[C@@H](C)CC)[C@@H](C)CC)[C@@H](C)O` [HSV 38], the Range in assay [13] was determined as 8.

Turning to `CC[C@H](C)[C@H](NC(=O)[C@H](CCCCN)NC(=O)[C@H](CC(C)C)NC(=O)[C@H](CO)NC(=O)[C@H](Cc1ccc(O)cc1)NC(=O)[C@@H](NC(=O)[C@H](C)NC(=O)[C@@H](NC(=O)[C@@H](NC(=O)[C@H](CCCNC(=N)N)NC(=O)[C@@H](N)CCC(N)=O)[C@@H](C)O)C(C)C)C(C)C)C(=O)N[C@@H](C)C(=O)NCC(=O)N[C@@H](Cc1c[nH]c2ccccc12)C(=O)N[C@@H](Cc1c[nH]cn1)C(=O)NCC(=O)N1CCC[C@H]1C(=O)N[C@@H](CCCCN)C(=O)N[C@@H](C)C(=O)N1CCC[C@H]1C(=O)N[C@@H](Cc1ccc(O)cc1)C(=O)N[C@H](C(=O)N[C@@H](CO)C(=O)N[C@H](C(=O)N[C@@H](CC(C)C)C(=O)N[C@@H](CC(C)C)C(=O)N1CCC[C@H]1C(=O)N1CCC[C@H]1C(=O)N[C@@H](CCC(=O)O)C(=O)N[C@@H](CC(C)C)C(=O)O)[C@@H](C)O)[C@@H](C)O` [HSV 40], the concentration for half-maximal inhibition (IC50) in [1] (Table V, […], read-out: IC50 DR1) is 1160 nM; in [1] ([…], Class II MHC allele DR1, read-out: IC50, DR1), 1160 nM; in assay [3] it was 1160 nM; in assay [4], 2 nM; in [5] (Class II MHC allele DR4, read-out: IC50, DR4), 9920 nM; in assay [5] (setting [14]) it was 9920 nM. Moreover, the IC50 in assay [6] (IC50, DRD3, Class II MHC allele DRD3 (so in the source)) was over 100000 nM; in assay [6] (IC50 DRB3, Table V, […]), over 100000 nM; in assay [7] it was 1590 nM; in assay [8] it was 20 nM; in assay [9] (Class II MHC allele DR11, read-out: IC50, DR11), 39 nM; in [9] (setting [15]), 39 nM. For the same compound, the IC50 in assay [10] (Class II MHC allele DP401) worked out at 1360 nM; in assay [10] (Table V, […]), 1360 nM; in assay [11] (IC50, DR3, Class II MHC allele DR3), 2390 nM; in [11] (IC50 DR3, Table V, […]) it was 2390 nM; in [12] (Class II MHC allele DP402), 7210 nM; in [12] (Table V, […]), 7210 nM. The compound further had a Range in assay [13] of 4.
